Values quoted from earlier work in patent US20130338198A1, “COMPOSITION FOR TREATING DERMATITIS AND ICHTHYOSIS, AND METHOD FOR TREATING DERMATITIS AND ICHTHYOSIS” (Skinvisible Pharmaceuticals, Inc., priority 2010, published 2013).

Conditions: in vivo

Row | Substance | dermal toxicity
1 | Poly(vinylpyrrolidone/1-eicosene) [PVPE] | no demonstrable dermal toxicity
2 | Poly(vinylpyrrolidone/1-hexadecene) [PVPH] | no demonstrable dermal toxicity
